Numbered stars: 1 amine (or outer) side, 2 acyl side, 3 side chain; on linkers, the order of the positions; unused ones are H or OH. Bridge positions count the residues as written; N and C are the ends. Square brackets hold non-standard residues; d marks the D form. Peptide text beside a SMILES is read from it. * marks the point of attachment. dProlinol(O-CH2CO) = O=C(COC[C@H]1CCCN1[*:1])[*:2]; N(2-Aminoethyl)Gly = O=C(CN(CCN[*:3])[*:1])[*:2]; Nle = CCCC[C@H](N)C(=O)O; Ms = CS(=O)(=O)*
Legend:
[1] = system: U266 cells; assay: In vitro cytotoxicity, PI staining and flow cytometry (U266); format: cell-based, human; settings: 1 hour at 37° C., PI staining, flow cytometry; compared to medium alone
Method: (§1) The cells were incubated with the conjugates and negative and positive controls for 1 hour at 37° C. followed by propidium iodide (PI) staining and flow cytometry analysis using FSC/SSC scatter densities and fluorescence to distinguish live and dead cells.

[2] = system: H929 cells; assay: In vitro cytotoxicity, PI staining, flow cytometry and microscopy (H929); format: cell-based, human; settings: 1 hour at 37° C., flow cytometry, compared to medium alone
Method: FSC/SSC scatter densities distinguished live cells (right population) and dead cells (left population). This was confirmed by PI staining.
as §1

[3] = system: 5TGM1 cells; assay: 5TGM1 murine myeloma model in vivo (survival, serum IgG2b); settings: 5TGM1 i.v. in C57BL6/KaLwRij mice; i.v. once weekly for 3 weeks; 10 mg/kg Fc-Sec-MTI-101, 10 mg/kg Fc-stop or MTI-101 0.3285 mg/kg; n=5
Method: One million 5TGM1 cells were injected intravenously (i.v.) in C57BL6/KaLwRij mice. Mice injected i.v. were treated once weekly for 3 weeks with 10 mg/kg Fc-Sec-MTI-101, 10 mg/kg Fc-stop, or an equal payload of MTI-101 (0.3285 mg/kg). […] Medium survival was 35 days for control and MTI-101 IV equal payload, 26 days for […] and 62 days for Fc-Sec-MTI-101 (n=5 animals per group), as shown in FIG. 18B. IgG2b levels were measured by ELISA 28 days following tumor inoculation.
This is an excellent immune competent MM model in which drug response is monitored in the confines of the bone marrow microenvironment. […] 5TGM1 cells (1×10^6 in 100 μL of PBS) were injected intravenously (i.v.) into the tail vein of 6-week old C57 BL/KaLwRij mice (Harlen, Netherlands). Tumor was allowed to engraft for 10 days prior to the initiation of drug treatment.
To quantify tumor burden, blood was collected by submandibular bleeding and mice were monitored weekly by measuring 5TGM1 secreted IgG2b (paraprotein) in the serum by ELISA (FIG. 18B). Hind limb paralysis and hunching were considered as additional surrogate markers for morbidity.

[4] = Maximum tolerated dose of MTI-101; parameters: species or system C57 BL/KaLwRij mice; settings: mouse, in vivo, ip; i.p. 3× weekly for three weeks
[5] = system: multiple myeloma (MM); settings: summary statement, no test described; cited from earlier work

CCCC[C@@H]1NC(=O)CN(S(C)(=O)=O)CCNC(=O)[C@H](CCCCN)NC(=O)[C@H](CC(C)C)NC(=O)[C@H](CCCCN)NC(=O)[C@H](CC(C)C)NC(=O)[C@H](CCCCN)NC(=O)COC[C@H]2CCCN2C(=O)[C@H](Cc2c[nH]c3ccccc23)NC(=O)[C@H](C)NC(=O)[C@H](C(C)C)NC(=O)[C@H](C(C)C)NC1=O [MTI-101] (Ms-[N(2-Aminoethyl)Gly][Nle]VVAW[dProlinol(O-CH2CO)]KLKLK; lactam 1-C)
cytotoxicity toward U266 cells [1]: clearly killed
cytotoxicity toward H929 cells [2]: clearly killed
Medium survival [3]: 35 days
MTD [4]: 10 mg/kg
IC50 potency [5]: near nM

Source: patent US10011635B2, “Cyclic peptide conjugates and methods of use” (priority 2013, dated 2018)
